Results on one compound are retold here after article PMC6468809, “Structural Analysis of the 42 kDa Parvulin of Trypanosoma brucei” (Biomolecules, 2019).

Test [1] deals with TbPar42-PPIase (264-383) (Trypanosoma brucei brucei, UniProt Q57XM6). The test is described as follows: biochemical.
For test [2], the target named is TbPar42 NterFHA (1-177) (Trypanosoma brucei brucei, UniProt Q57XM6). As to the kind of experiment: biochemical.
Experimental: After each step a ^1H-^15N-HSQC or SOFAST spectrum was recorded on a 700 MHz Ultrashield NMR spectrometer at 27 °C. The spectra were analyzed with the CcpNmr Analysis software, and the chemical shift perturbations were calculated with following equation [22]: Δδtotal=(ΔδH)^2+(0.154·ΔδN)²
Residues with chemical shifts ≥0.015 ppm (PPIase) or ≥0.04 ppm (NterFHA) were represented on the related protein structure using PyMOL [23]. For titrations of the peptide Ala-Glu-Ala-pThr-Glu-Ala-Xaa (Xaa representing Asp, Ile, Val, Ser, or Gln) to the NterFHA domain, the protein concentration was 250 µM and the peptides were titrated to a final concentration of 8 mM.
Test [3] concerns TbPar42-PPIase. The test is described as follows: EXSY experiment, cis/trans isomerisation of peptide. It counts as biochemical, Trypanosoma brucei. The following applies: 2.4 mM peptide, 50 μM TbPar42-PPIase, 25 mM potassium phosphate pH 6.26, 100% D2O, 27 °C, mixing time 400 ms.
In test [4] the test system is hPin1. The description is as above. It is filed as biochemical, human. The following applies: 2.4 mM peptide, 50 μM hPin-PPIase, 25 mM potassium phosphate pH 6.26, 100% D2O, 27 °C, mixing time 400 ms.

*1 amine or outer side, *2 acyl side, *3 side chain or, on linkers, in order; H or OH if unused. Where a SMILES comes first, the peptide text is derived from it. [ ]: non-standard residue; d: D form. pT = C[C@@H](OP(=O)(O)O)[C@H](N)C(=O)O; Suc = O=C(CCC(=O)[*:2])[*:1]

For orientation: Kd means the concentration at which binding is half-saturated.

TbPar42-PPIase (264-383), sequence (Q57XM6 264-383): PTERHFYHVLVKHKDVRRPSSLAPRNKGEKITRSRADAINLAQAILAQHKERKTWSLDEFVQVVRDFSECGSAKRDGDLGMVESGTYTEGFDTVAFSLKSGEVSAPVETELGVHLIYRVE
TbPar42 NterFHA (1-177), sequence (Q57XM6 1-177): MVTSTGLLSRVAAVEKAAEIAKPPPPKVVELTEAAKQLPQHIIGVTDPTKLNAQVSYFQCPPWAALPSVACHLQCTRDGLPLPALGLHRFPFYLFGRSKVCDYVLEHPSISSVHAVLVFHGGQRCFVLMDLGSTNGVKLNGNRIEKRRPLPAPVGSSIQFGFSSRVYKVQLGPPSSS

For the compound `C[C@H](NC(=O)[C@@H]1CCCN1C(=O)[C@@H](NC(=O)[C@H](C)NC(=O)CCC(=O)O)[C@@H](C)OP(=O)(O)O)C(N)=O` [Suc-Ala-pThr-Pro-Ala-NH2] (Suc-A[pT]PA-NH2), the Kd in test [1] was around 10 mM; in test [2], around 4 mM. Further, the “isomerase activity on the peptide” value in test [3] is given as “no isomerase activity could be detected”. Also, the “cis/trans exchange peaks of the peptide (EXSY)” value in test [4] is “exchange peaks generated exclusively in B”.
